This is an account of results in US20120245155A1, “FUSED HETEROCYCLIC COMPOUND HAVING AMINO GROUP” (Shionogi & Co., Ltd., priority 2009, published 2012).

For orientation: inhibition means how much of the control response was suppressed. As a reminder, the IC50 is the midpoint of a concentration-inhibition curve.

One series has as its target T1, hERG (IKr) (Homo sapiens, UniProt Q12809).
T1 construct: expressed in transfected cells; host or cells: HEK293 cells
In words: hERG test. The class given is cell-based. The note with it: pH 7.4, HEK293 cells expressing hERG channel, whole cell patch clamp, concentration not given, read-out: % inhibition relative to the tail peak current (IKr). An excerpt: For the purpose of assessing risk of an electrocardiogram QT interval prolongation, effects on delayed rectifier K+ current (IKr), which plays an important role in the ventricular repolarization process of the compound of the present invention, is studied using HEK293 cells expressing human ether-a-go-go related gene (hERG) channel.
After a cell was retained at a membrane potential of −80 mV by whole cell patch clamp method using an automated patch clamp system (PatchXpress 7000A, Axon Instruments Inc.), IKr induced by depolarization pulse stimulation at +40 mV for 2 seconds and, further, repolarization pulse stimulation at −50 mV for 2 seconds was recorded. […] From the recording IKr, an absolute value of the tail peak current was measured based on the current value at the resting membrane potential using analysis software (DataXpress ver. 1, Molecular Devices Corporation). Further, the % inhibition relative to the tail peak current before application of the test compound was calculated, and compared with the vehicle-applied group (0.1% dimethyl sulfoxide solution) to assess influence of the test compound on IKr.

The subject of series [1] is Neuroblastoma SH—SY5Y cells (SH/APPwt) with human wild-type β-APP excessively expressed. In words: Measurement of β-amyloid (Aβ) production inhibitory effect in cell. In kind it is cell-based. The note with it: 24 hours incubation, Amyloid β 1-40 by HTRF, read-out: amount needed to inhibit Aβ production by 50% (IC50). On the procedure:
Neuroblastoma SH—SY5Y cells (SH/APPwt) with human wild-type p-APP excessively expressed therein were prepared at 8×10^5 cells/mL, and 150 μl portions thereof were inoculated into each well of a 96-well culture plate (Falcon). The cells were cultured for 2 hours at 37° C. in a 5% gaseous carbon dioxide incubator. Then, a solution which had been preliminarily prepared by adding and suspending the test compound (DMSO (dimethyl sulfoxide) solution) so as to be 2 μl/50 μl medium was added to the cell sap. Namely, the final DMSO concentration was 1%, and the amount of the cell culture was 200 μl. After the incubation was performed for 24 hours from the addition of the test compound, 100 μl of the culture supernatant was collected from each fraction. The amount of the Aβ in each fraction was measured.
The Aβ amount was measured as follows. 10 μl of a homogeneous time resolved fluorescence (HTRF) measurement reagent (Amyloid β 1-40 peptide; IBA Molecular Holding, S. A.) and 10 μl of the culture supernatant were put into a 384-well half area microplate (black microplate, Costar) and mixed with each other, and then left standing overnight at 4° C. while the light was shielded. Then, the fluorescence intensity (excitation wavelength: 337 nm, measurement wavelength: 620 nm and 665 nm) was measured with a Wallac 1420 multilabel counter (Perkin Elmer life sciences). The Aβ amount was determined from the count rate at each measurement wavelength (10000× Count 665/Count 620), and the amount needed to inhibit Aβ production by 50% (IC50) was calculated from at least six different dosages.
A general note: Time-resolved FRET reads energy transfer from a long-lived donor to a nearby acceptor.

Series [2] can be described thus: Metabolism stability test. In kind it is in vitro ADME. The note with it: human liver microsomes 0.5 mg protein/mL, 1 mmol/L NADPH, 37° C., 30 minutes; 0 minute = 100%. On the procedure: Using commercially available pooled human hepatic microsomes, a test compound is reacted for a constant time, a remaining rate is calculated by comparing a reacted sample and an unreacted sample, thereby, a degree of metabolism in liver is assessed.
A reaction is performed (oxidative reaction) at 37° C. for 0 minute or 30 minutes in the presence of 1 mmol/L NADPH in 0.2 mL of a buffer (50 mmol/L Tris-HCl pH 7.4, 150 mmol/L potassium chloride, 10 mmol/L magnesium chloride) containing 0.5 mg protein/mL of human liver microsomes. After the reaction, 50 μL of the reaction solution is added to 100 μL of a methanol/acetonitrile=1/1 (v/v), mixed and centrifuged at 3000 rpm for 15 minutes. The test compound in the supernatant is quantified by LC/MS/MS, and a remaining amount of the test compound after the reaction is calculated, letting a compound amount at 0 minute reaction time to be 100%.
On the technique in general: Liver microsomes are a subcellular fraction often used to study metabolism.

T1 sequence (Q12809 whole entry): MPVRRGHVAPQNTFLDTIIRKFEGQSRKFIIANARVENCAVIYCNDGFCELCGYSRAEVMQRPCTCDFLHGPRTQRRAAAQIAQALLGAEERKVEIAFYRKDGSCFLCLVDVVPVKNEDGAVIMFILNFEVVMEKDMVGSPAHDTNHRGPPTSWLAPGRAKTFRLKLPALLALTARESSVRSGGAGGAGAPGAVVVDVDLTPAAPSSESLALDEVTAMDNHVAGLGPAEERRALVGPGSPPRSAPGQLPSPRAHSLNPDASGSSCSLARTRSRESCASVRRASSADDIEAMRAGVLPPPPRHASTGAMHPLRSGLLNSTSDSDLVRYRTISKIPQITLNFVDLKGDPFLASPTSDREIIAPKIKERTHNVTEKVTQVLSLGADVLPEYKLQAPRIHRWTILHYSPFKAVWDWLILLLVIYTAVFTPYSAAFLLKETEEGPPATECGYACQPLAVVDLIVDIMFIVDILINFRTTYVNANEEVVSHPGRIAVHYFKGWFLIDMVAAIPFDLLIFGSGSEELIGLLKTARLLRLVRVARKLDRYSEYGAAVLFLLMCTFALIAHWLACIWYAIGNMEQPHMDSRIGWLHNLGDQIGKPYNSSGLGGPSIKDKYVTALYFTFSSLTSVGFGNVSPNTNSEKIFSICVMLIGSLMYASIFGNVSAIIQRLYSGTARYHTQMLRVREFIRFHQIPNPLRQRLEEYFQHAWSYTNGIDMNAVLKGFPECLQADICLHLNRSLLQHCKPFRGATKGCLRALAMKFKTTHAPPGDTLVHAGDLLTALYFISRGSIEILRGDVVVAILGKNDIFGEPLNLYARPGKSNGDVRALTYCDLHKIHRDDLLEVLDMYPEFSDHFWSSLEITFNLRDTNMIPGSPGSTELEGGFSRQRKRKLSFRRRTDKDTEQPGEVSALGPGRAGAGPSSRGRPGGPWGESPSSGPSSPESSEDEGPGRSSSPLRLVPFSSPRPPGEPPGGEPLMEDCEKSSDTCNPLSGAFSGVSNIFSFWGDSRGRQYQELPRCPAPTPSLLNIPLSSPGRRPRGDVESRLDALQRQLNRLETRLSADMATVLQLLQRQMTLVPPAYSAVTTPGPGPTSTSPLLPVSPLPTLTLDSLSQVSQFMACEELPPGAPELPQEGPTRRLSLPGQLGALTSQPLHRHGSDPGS

As to `NC1=NC2(c3cc(-c4cncnc4)ccc3F)CCCC2CO1` (racemic) [Compound I-39], at hERG (IKr), the inhibition at 10 min turned out to be 19.3%. Besides, the IC50 in series [1] was ≤ 1000 nM.

For the compound `NC1=NC2(c3cc(-c4cccnc4F)ccc3F)COCC2CO1` (racemic) [Compound I-42], in series [1], the IC50 is ≤ 1000 nM. For the same compound, the “remaining amount of the test compound after the reaction” value in series [2] amounted to 94.7%.
